Values of other authors as cited in patent US20250345309A1, “IMMUNE HEALTH IMPROVERS” (Amazentis SA, priority 2024, published 2025).

Settings: over 4 months, middle-aged adults (Singh et al. 2022); cited from earlier work

Compound: O=c1oc2cc(O)ccc2c2ccc(O)cc12 [Urolithin A (UA)]
- Safety and tolerability of long-term oral administration: safe and well tolerated
